Results taken from the CheMixHub ionic liquid set.

Assay: xn = mol fraction of the nth substance listed

CCCC[n+]1ccn(C)c1.[Br-] + Cc1ncc(CO)c(CO)c1O.Cl + O
viscosity [mPa·s], 100 kPa
Settings | 293.15 K | 298.15 K | 303.15 K | 308.15 K | 313.15 K
x2 = 0, x1 = 0.0009002 | 1.033 | 0.918 | 0.823 | 0.753 | 0.676
x2 = 0, x1 = 0.001799 | 1.057 | 0.938 | 0.841 | 0.757 | 0.689
x2 = 0, x1 = 0.002696 | 1.068 | 1.001 | 0.904 | 0.796 | 0.748
x2 = 0.0002693, x1 = 0.0008999 | 1.037 | 0.922 | 0.827 | 0.757 | 0.68
x2 = 0.0002812, x1 = 0.001798 | 1.062 | 0.943 | 0.846 | 0.762 | 0.694
x2 = 0.0002821, x1 = 0.002695 | 1.073 | 1.006 | 0.909 | 0.801 | 0.753
x2 = 0.0004585, x1 = 0.0008998 | 1.041 | 0.926 | 0.831 | 0.761 | 0.684
x2 = 0.0005547, x1 = 0.002694 | 1.078 | 1.011 | 0.914 | 0.806 | 0.758
x2 = 0.0005732, x1 = 0.001798 | 1.067 | 0.948 | 0.851 | 0.767 | 0.699
x2 = 0.0008147, x1 = 0.0008995 | 1.047 | 0.932 | 0.837 | 0.768 | 0.691
x2 = 0.0008302, x1 = 0.001797 | 1.072 | 0.953 | 0.856 | 0.772 | 0.704
x2 = 0.0008383, x1 = 0.002693 | 1.083 | 1.016 | 0.919 | 0.811 | 0.763
x2 = 0.001093, x1 = 0.0008992 | 1.052 | 0.937 | 0.842 | 0.774 | 0.696
x2 = 0.001142, x1 = 0.001797 | 1.078 | 0.959 | 0.861 | 0.777 | 0.709
x2 = 0.001151, x1 = 0.002693 | 1.089 | 1.022 | 0.925 | 0.816 | 0.768
x2 = 0.00136, x1 = 0.000899 | 1.058 | 0.943 | 0.848 | 0.78 | 0.703
x2 = 0.001373, x1 = 0.001796 | 1.082 | 0.963 | 0.865 | 0.781 | 0.713
x2 = 0.001399, x1 = 0.002692 | 1.094 | 1.027 | 0.929 | 0.82 | 0.772
x2 = 0.001637, x1 = 0.0008987 | 1.063 | 0.948 | 0.854 | 0.785 | 0.708
x2 = 0.001664, x1 = 0.002691 | 1.098 | 1.032 | 0.933 | 0.825 | 0.777
x2 = 0.001674, x1 = 0.001796 | 1.087 | 0.968 | 0.87 | 0.786 | 0.718

CCCC[n+]1ccn(C)c1.[Br-] + NC(N)=NCCC[C@H](N)C(=O)O + O
Settings | viscosity [mPa·s]
313.15 K, 101.3 kPa, x2 = 0, x1 = 0.0007203 | 0.674

C[N+](C)(C)CCO.NCC(=O)[O-] + CO
viscosity [mPa·s], 100 kPa
Settings | x1 = 0.1002 | x1 = 0.2001 | x1 = 0.2997 | x1 = 0.4004 | x1 = 0.4994 | x1 = 0.6 | x1 = 0.6997 | x1 = 0.8001 | x1 = 0.9 | x1 = 1
298.15 K | 2.3 | 6.55 | 15.49 | 34.55 | 64.1 | 108.4 | 170.2 | 260 | 369 | 501
303.15 K | 2.08 | 5.72 | 13.06 | 28.31 | 50.8 | 84 | 128.3 | 193.9 | 269 | 363
308.15 K | 1.89 | 5.03 | 11.1 | 23.47 | 40.9 | 66.3 | 99.9 | 146.7 | 201 | 264
313.15 K | 1.73 | 4.47 | 9.55 | 19.74 | 33.58 | 53.4 | 78.9 | 111.5 | 153.5 | 201
318.15 K | 1.58 | 3.98 | 8.28 | 16.74 | 27.95 | 45.2 | 62.8 | 89.7 | 118.8 | 154.5
323.15 K | 1.46 | 3.57 | 7.27 | 14.32 | 23.49 | 37.8 | 51.2 | 71.9 | 94.3 | 121.1

CCCC[N+](CCCC)(CCCC)CCCC.[Cl-] + OCCOCCOCCO
Settings | electrical conductivity, 293.15 K [S/m] | electrical conductivity, 303.15 K [S/m] | electrical conductivity, 313.15 K [S/m] | electrical conductivity, 323.15 K [S/m] | electrical conductivity, 333.15 K [S/m] | viscosity, 293.15 K [mPa·s] | viscosity, 303.15 K [mPa·s] | viscosity, 313.15 K [mPa·s] | viscosity, 323.15 K [mPa·s] | viscosity, 333.15 K [mPa·s]
100 kPa, x1 = 0.1667 | 0.0683 | 0.099 | 0.141 | 0.196 | 0.268 | 126 | 82.6 | 55.6 | 38.4 | 27.1
100 kPa, x1 = 0.333 | 0.049 | 0.0739 | 0.109 | 0.156 | 0.219 | 277 | 179 | 119 | 81.4 | 56.8
101 kPa, x2 = 0.25 | – | – | – | – | – | – | – | – | 910 | –
